What all share (assay): growth of human tumour cells (NCI), 48 h
Test [1] concerns DU-145 prostate.
The subject of test [2] is HCC-2998 colon.
The test system of test [3] is MDA-MB-231 breast.
Test [4] has as its system NCI-H226 lung.
Test [5] has as its system OVCAR-4 ovarian.
Test [6] concerns PC-3 prostate.
The subject of test [7] is SF-539 CNS.
In test [8] the test system is SK-OV-3 ovarian.
Test [9] deals with SNB-75 CNS.
Test [10] has as its system EKVX NSCLC.

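Grown in 96-well plates, cells were treated for 48 hours with each compound at five concentrations. Insufficient inhibition: endpoint recorded as highest concentration tested. GI50: concentration for 50% inhibition of growth. TGI is the concentration that stops growth completely.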

`COc1ccc(-c2cnc3ccnn3c2-c2cc(OC)c(OC)c(OC)c2)cc1`: the GI50 was 4.23 µM in [1]; 3.79 µM in test [2]; 4.3 µM in test [3]; 8.13 µM in test [4]; 9.69 µM in test [5]; 2 µM in [6]. Moreover, the GI50 in test [7] was 1.99 µM; in [8], 4.63 µM; in [9], 2.2 µM. Moreover, the TGI in test [1] is over 100 µM; in [2] it was over 100 µM; in test [3], 65.7 µM; in [4] it was over 100 µM; in test [5], over 100 µM; in [6], over 100 µM. The TGI was 6.11 µM in test [7], over 100 µM in test [8] and 62.7 µM in test [9].

Turning to `Oc1ccc(CNCc2ccccc2)c2cccnc12`, the TGI in test [1] is 38.4 µM; in test [10], over 100 µM; in [4], 66.7 µM; in test [5], over 100 µM; in test [6], 59.8 µM; in [8], over 76.9 µM. Further, the TGI in test [9] was 0.229 µM.

Consider `Clc1cc(Cl)c(Cl)c(-c2nc(-c3cccnc3)cs2)c1`, for which the GI50 in [1] was 2.55 µM; in [10] it was 40.2 µM; in test [3], 53 µM; in test [4], 27.4 µM; in test [5] it was 25.6 µM; in test [6], 59.4 µM. Besides, the GI50 in test [7] is 10.7 µM; in [8], over 100 µM; in test [9], 23 µM. Further, the TGI in [1] was 96.2 µM; in test [10], over 100 µM; in test [3], over 100 µM; in test [4] it was 85.8 µM; in [5], 98.8 µM; in test [6], over 100 µM. Besides, the TGI in test [7] was 25.4 µM; in [8] it was over 100 µM; in test [9], 80.6 µM.

Consider `Cc1cc(O)c(C(c2cccnc2)c2c(O)cc(C)[nH]c2=O)c(=O)[nH]1`, for which the TGI in test [1], in test [10], in [3], in test [5], in [6] and in test [8] was over 100 µM in each case.

In the case of `O=C(Nc1ccccc1)Nc1cccc(-n2cc(-c3ccncc3)c(-c3ccc(O)c(Cl)c3)n2)c1`, the GI50 in test [1] was 5.66 µM; in test [2], 3.19 µM; in test [3], 1.98 µM; in test [4], 7.35 µM; in test [5], 3.45 µM; in test [6], 3.19 µM. Also, the values for the GI50 in test [7], in test [8] and in [9] were 1.96 µM, 6.02 µM and 1.68 µM, respectively. In addition, the TGI in [1] is over 100 µM; in test [2] it was 9.79 µM; in test [3] it was 5.23 µM; in [4], over 100 µM; in [5] it was 25.7 µM; in test [6], 19.6 µM. The TGI in [7] was 4.5 µM; in test [8] it was 40.7 µM; in test [9] it was 10.7 µM.

Regarding `O=C1N=C(c2ccccc2)OC1C(=O)c1ccccc1` (stereo not given), the TGI in test [1], in test [10], in test [2], in [3], in test [4] and in [5] was over 100 µM each time. Besides, the TGI in test [6], in test [8] and in test [9] was over 100 µM in each case.

As to `COc1ccc(/C=C2\CN(Cc3cn(CCCNc4ccnc5cc(Cl)ccc45)nn3)C/C(=C\c3ccc(OC)c(OC)c3)C2=O)cc1OC`, the GI50 was 1.1 µM in test [1]; 1.41 µM in test [2]; 1.7 µM in test [3]; 1.97 µM in test [4]; 1.11 µM in [5]; 0.843 µM in test [6]. Besides, the GI50 in test [7] was 1.99 µM; in test [8], 2.45 µM; in test [9] it was 1.71 µM. Also, the TGI in test [1] is 2.31 µM; in [2] it was 2.9 µM; in test [3] it was 3.48 µM; in [4], 4.74 µM; in [5] it was 18.1 µM; in test [6] it was 3.22 µM. Besides, the TGI in [7] is 4.76 µM; in test [8], 11.1 µM; in test [9] it was 6.09 µM.

Consider `NC(CNO)C(=O)O` (stereo not given), for which the TGI in [1], in test [10], in [3], in test [4], in [5] and in test [6] was over 100 µM throughout. In addition, the TGI in test [7], in test [8] and in test [9] was over 100 µM in each case.

Consider `Cc1ccc(S(=O)(=O)/N=c2\ssc(Nc3ccccc3)c2Cl)cc1`, for which the GI50 was 7.74 µM in test [1]; 6.03 µM in test [10]; 9.84 µM in test [3]; 19.2 µM in test [4]; 33.6 µM in [5]; 6.95 µM in [6]. The GI50 in test [8] was 15.3 µM. The TGI is 27.6 µM in test [1]; 16.9 µM in [10]; 26 µM in test [3]; over 50 µM in test [4]; over 50 µM in test [5]; 18.4 µM in test [6]. Further, in test [8], the TGI is over 50 µM.

Regarding `COc1ccc(-c2cc(=O)c3c(OC)c(OC)c(OC)c(OC)c3o2)cc1OC`, the TGI in test [1], in test [10], in [2], in [3], in [4] and in test [5] was over 100 µM each time. Besides, the TGI in [7], in [8] and in test [9] was over 100 µM throughout.

For the compound `CCOC(=O)c1ccc(N(CCOS(C)(=O)=O)CCOS(C)(=O)=O)cc1C`, the GI50 is 18.4 µM in test [1]; 29.5 µM in [10]; 28.1 µM in test [2]; 77.9 µM in [3]; 20.9 µM in test [5]; 30.4 µM in test [6]. In addition, the GI50 in test [7] is 23.9 µM; in [8] it was 33.6 µM; in test [9], 34.5 µM. The TGI is 38.9 µM in [1]; over 100 µM in test [10]; 66.6 µM in test [2]; over 100 µM in test [3]; 46.8 µM in test [5]; over 100 µM in test [6]. Besides, the TGI in [7] is over 100 µM; in [8], over 100 µM; in [9] it was 87.1 µM.

In the case of `COc1cc(/C=C2\CN(C)C/C(=C\c3cc(OC)c(OC)c(OC)c3)C2=O)cc(OC)c1OC`, the GI50 in test [1] was 0.355 µM; in test [2], 0.366 µM; in test [3] it was 0.336 µM; in test [4], 0.239 µM; in test [5] it was 0.342 µM; in [6], 1.32 µM. Moreover, the GI50 was 0.379 µM in test [7], 0.412 µM in [8] and 0.667 µM in test [9]. In addition, the TGI in [1] worked out at 1.22 µM; in test [2] it was 1.22 µM; in [3], 1.03 µM; in test [4], 0.588 µM; in test [5] it was 1.95 µM; in [6] it was 4.52 µM. The TGI stood at 1.33 µM in test [7], 1.41 µM in [8] and 2.48 µM in [9].

Consider `COc1cc(/C=C2\[C@H]3c4c(c(OC)c(C)c(OC)c4OC)C[C@@H](C(=O)N2Cc2ccccc2)N3C(=O)OC(C)C)c(OC)c(C)c1OC`, for which the TGI was over 100 µM in [10]; over 100 µM in [2]; 56.2 µM in test [4]; over 100 µM in [5]; over 100 µM in [7]; over 100 µM in [8]. In test [9], this compound returned a TGI of over 100 µM.

Turning to `C=C[C@]1(C)CCC2=C(CCC3C2(C)CCC[C@]3(C)CO)C1` (stereo not given in full), the TGI in test [10], in [2], in [4], in test [5], in test [7] and in test [8] was over 100 µM throughout. The compound also came in with a TGI in test [9] of over 100 µM.

Regarding `COc1cc2nc(Sc3c([N+](=O)[O-])ncn3C)[nH]c2cc1OC`, the TGI was 80.7 µM in test [10]; over 100 µM in test [2]; over 100 µM in [4]; over 100 µM in test [5]; 47.5 µM in [7]; over 100 µM in test [8]. In [9], this compound returned a TGI of over 100 µM.

For `COC(=O)C1(C(=O)OC)CC2c3c(c4ccccc4n3C)CC(C1=O)N2Cc1ccccc1` (stereo not given), the TGI in test [10], in test [2], in test [4], in test [5], in test [7] and in test [8] was over 100 µM in each case. For the same compound, in [9], the TGI was found to be 92 µM.

Take `Cc1cc(C)c(O)c(Cc2cccc(Cc3cc(C)cc(C)c3O)c2O)c1`: the TGI in [1], in test [10], in test [3], in test [5], in test [6] and in test [7] was over 100 µM throughout. Further, the TGI in [8] and in test [9] was over 100 µM throughout.

As to `COc1cc(-c2cc(=O)c3ccccc3o2)ccc1N`, the TGI was over 100 µM in test [10]; over 100 µM in [2]; 96.6 µM in test [4]; over 100 µM in test [5]; over 100 µM in test [7]; over 100 µM in [8]. For the same compound, the TGI in test [9] was found to be 83.2 µM.

The values are drawn from PubChem BioAssay (NCI).
